What was measured:
[1] = target: sGC α1/β1 heterodimer (Homo sapiens (Human), UniProt Q02108+Q02153); test: Cell-based sGC functional assay (CASA assay), cGMP by HTRF; conditions: CHO-K1/sGC cells; for EC50: inflection point of cGMP production, 4P fit, read-out: IP; for Emax: CHO-K1, cGMP production as percentage of maximum of compound A (set to 100%), read-out: % Activation
Text: Cell-Based sGC Functional Assay (Cyclic GMP Assay for sGC Activator: CASA Assay)
Soluble guanylate cyclase (sGC) is a heme-containing enzyme that converts GTP to secondary messenger cGMP. Increases in cGMP levels affect several physiological processes including vasorelaxation through multiple downstream pathways. […] Heme-dependent activators (HDAs) preferentially target sGC containing a ferrous heme group. To determine the effect of sGC activators on enzyme activity, the CASA assay was developed to monitor the generation of cGMP in a cell line that stably expresses the heterodimeric sGC protein.
A CHO-K1 cell line stably expressing the sGC α1/β1 heterodimer was generated using a standard transfection protocol. The cDNA's encoding human sGC α1 and β1 were cloned in pIRES hyg and pIRES neo respectively using standard molecular biology techniques. The plasmids pIRES hyg and pIRES neo plasmids were obtained from Clontech. CHO-K1 cells were transfected with plasmids pIREShyg-hsGCα1 and pIRESneo-hsGCβ1 simultaneously using FUGENE reagent. Clones that stably express both subunits were selected with hygromycin and neomycin for ˜2 weeks. The clone chosen for the assay was designated CHO-K1/sGC. CHO-K1/sGC cells were maintained in F-K12 medium containing 10% heat-inactivated Fetal Bovine Serum (FBS), 100 μg/mL penicillin/streptomycin, 0.5 mg/mL hygromycin and 0.25 mg/mL G418. The cells were then cryopreserved in liquid nitrogen. On the day of the assay, the cells were thawed and resuspended in EBSS Assay Buffer (Sigma, E3024) supplemented with 5 mM MgCl2, 10 mM HEPES (4-(2-hydroxyethyl)piperazine-1-ethanesulfonic acid) and 0.05% BSA (bovine serum albumin) and cell density was then adjusted to 2.25×10^5/mL with EAB. IBMX (3-isobutyl-1-methylxanthin, 0.5 mM) was added to inhibit degradation of cGMP. Compounds were diluted from DMSO stock solutions and added to the assay at a final DMSO concentration of 2.5%. Cells were pre-incubated in the presence and absence of 1 μM of Diethylenetriamine/nitric oxide adduct (DETA-NO; Sigma, 17018) for 30 min at 25° C. Compounds were subsequently added and incubated for 1 hr at 37° C. At the end of the incubation period, the reaction was terminated and the cells were lysed with the detection reagents from Cisbio Kits. The level of intracellular cGMP was determined using an HTRF-based assay kit (CisBio, 62GM2PEC), which detects the displacement of a fluorescence labeled cGMP from its specific antibody. The cGMP produced by test compounds was directly compared to the maximum cGMP production (this value was set to equal 100% activation) of the published sGC compound A (Example 1 in WO 2010/065275, published Jun. 10, 2010).
The test compounds' activities were then expressed as a percentage of compound A, the standard in every experiment. This percent activation was calculated either in the presence or absence of DETA-NO which was then plotted. Inflection points (IP) and maximum fold induction was derived using Abase analysis software for 4P fit.

[2] = target: human recombinant sGC enzyme (Homo sapiens (Human), UniProt Q02108+Q02153); test: SEC competition binding assay with [3H] Compound B radioligand; conditions: displacement of 1.6 nM [3H] Compound B, 24 h at 37° C.
Description: The binding potencies of sGC compounds to the human recombinant sGC enzyme were determined in a Size Exclusion Chromatography (SEC) competition binding assay using [^3H] Compound B as the radioligand. [^3H] Compound B was prepared using a standardardized tritium exchange procedure. The parent (non-labeled) molecule was first iodinated then a Pd-catalyzed iodine to tritium exchange provided the labeled compound.
Method: The binding buffer was composed of 50 mM triethanolamine pH 7.4, 3 mM MgCl2, 0.025% BSA, 2 mM dithiothreitol (DTT), 300 μM DETA/NO and 400 μM GTP. Assays were conducted in 96-well plates in a total volume of 200 μL. Recombinant human sGC protein (40 ng) was incubated with 1.6 nM [^3H] Compound B for 24 h at 37° C. in the presence and absence of various concentrations of sGC testing compounds delivered as DMSO solutions to give a total of 1% organic solvent content. Non-specific binding was defined by competition with 1 μM of Compound B. After the incubation period, the binding mixtures were loaded onto the gel-filtration plate (ThermoFischer Cat. No. 89808) pre-equilibrated with binding buffer and spun at 1000×g for 3 min at 4° C. on a Bench top centrifuge. The collected eluates in White Frame Clear Well Isoplates (Perkin Elmer Cat #6005040) received 100 μl of UltimaGold scintillation cocktail. The sealed plates were shaken vigorously and span, and counted after 6 hs with a Wallac Microbeta TriLux 1450 LSC & Luminescence Counter (Perkin Elmer). Data from competition experiments were analyzed to determine Ki values using one site—fit Ki equation.

% Activation ([1]; cGMP production as percentage of maximum of compound A (set to 100%)) [%]	EC50 [1] [nM]	Ki [2] [nM]	Emax [1] [%]	Structure (SMILES)
95	736	1.46		CC1(c2ccc(Cl)c(O)c2)C(=O)Nc2nc(-c3cn4ccnc4c(Cc4ccc(F)cc4)n3)nc(NCC(O)C(F)(F)F)c21 (single isomer, unassigned) [Example 132-AB, 5-(4-Chloro-3-hydroxy-phenyl)-2-{8-[(4-fluoro-phenyl)methyl]imidazo-[1,2-a]pyrazin-6-yl}-5-methyl-4-[(3,3,3-trifluoro-2-hydroxypropyl)amino]-5,7-dihydro-6H-pyrrolo-[2,3-d]pyrimidin-6-one]
	382	0.118	73	CC1(c2cc(O)c(C#N)c(F)c2)C(=O)Nc2nc(-c3cn4ccnc4c(Cc4cc(F)cc(F)c4F)n3)nc(N)c21 (stereo not drawn) [Example 102-B, 4-(4-Amino-5-methyl-6-oxo-2-{8-[(2,3,5-trifluorophenyl)methyl]imidazo[1,2-a]pyrazin-6-yl}-6,7-dihydro-5H-pyrro1o[2,3-d]pyrimidin-5-yl)-2-fluoro-6-hydroxybenzonitrile]
	437	1.62	159	CC1(c2cc(O)ccn2)C(=O)Nc2nc(-c3cn4ncnc4c(Cc4cccc(F)c4)n3)nc(N)c21 (stereo not drawn) [Example 110-B, 4-Amino-2-{8-[(3-fluorophenyl)methyl]-[1,2,4]triazolo[1,5-a]-pyrazin-6-yl}-5-(4-hydroxypyridin-2-yl)-5-methyl-5,7-dihydro-6H-pyrrolo[2,3-d]pyrimidin-6-one]
	308	0.158	94	CC1(c2cc(O)c(Cl)c(F)c2)C(=O)Nc2nc(-c3cn4ccnc4c(Cc4cc(F)cc(F)c4)n3)nc(N)c21 (stereo not drawn) [Example 16-B, 4-Amino-5-(4-chloro-3-fluoro-5-hydroxyphenyl)-2-{8-[(3,5-difluorophenyl)methyl]imidazo[1,2-a]pyrazin-6-yl}-5-methyl-5,7-dihydro-6H-pyrrolo[2,3-d]pyrimidin-6-one]
	3460	4.62	84	CCCCc1nc(-c2nc(N)c3c(n2)NC(=O)C3(C)c2cc(O)c(Cl)cn2)cn2ccnc12 (stereo not drawn) [Example 72-B, 4-Amino-2-(8-butylimidazo[1,2-a]pyrazin-6-yl)-5-(5-chloro-4-hydroxypyridin-2-yl)-5-methyl-5,7-dihydro-6H-pyrrolo[2,3-d]pyrimidin-6-one]
	600	2.2	121	CC1(c2ccc(Cl)c(O)c2)C(=O)Nc2nc(-c3cn4ccnc4c(CCC4CCCCC4)n3)nc(N)c21 (stereo not drawn) [Example 63-A, 4-Amino-5-(4-chloro-3-hydroxyphenyl)-2-(8-(2-cyclohexylethyl)imidazo[1,2-a]pyrazin-6-yl)-5-methyl-5,7-dihydro-6H-pyrrolo[2,3-d]pyrimidin-6-one]
	1920	7.15	81	CC1(c2ccc(O)c(F)c2)C(=O)Nc2nc(-c3cn4ccnc4c(CCC(F)(F)C(F)(F)F)n3)nc(N3CC(O)(C(F)(F)F)C3)c21 (stereo not drawn) [Example 130-A, 5-(3-Fluoro-4-hydroxyphenyl)-4-(3-hydroxy-3-(trifluoromethyl)azetidin-1-yl)-5-methyl-2-(8-(3,3,4,4,4-pentafluorobutyl)imidazo[1,2-a]pyrazin-6-yl)-5,7-dihydro-6H-pyrrolo[2,3-d]pyrimidin-6-one]
	1890	2	84	CC1(c2ccc(F)c(O)c2)C(=O)Nc2nc(-c3cn4ccnc4c(CCC(F)(F)C(F)(F)F)n3)nc(N3CC(O)(C(F)(F)F)C3)c21 (stereo not drawn) [Example 129-B, 5-(4-Fluoro-3-hydroxyphenyl)-4-(3-hydroxy-3-(trifluoromethyl)azetidin-1-yl)-5-methyl-2-(8-(3,3,4,4,4-pentafluorobutyl)imidazo[1,2-a]pyrazin-6-yl)-5,7-dihydro-6H-pyrrolo[2,3-d]pyrimidin-6-one]
	1790	0.155	84	Cc1cnc(C2(C)C(=O)Nc3nc(-c4cn5ccnc5c(Cc5cccc(F)c5)n4)nc(N)c32)cc1O (stereo not drawn) [Example 151-A, 4-Amino-2-{8-(3-fluorobenzyl)imidazo[1,2-a]pyrazin-6-yl}-5-(4-hydroxy-5-methylpyridin-2-yl)-5-methyl-5,7-dihydro-6H-pyrrolo[2,3-d]pyrimidin-6-one]
	30	4.08	81	CCCCc1nc(-c2nc(N)c3c(n2)NC(=O)C3(C)c2ccc(O)c(F)c2)cn2ncnc12 (stereo not drawn) [Example 71-B, 4-Amino-2-(8-butyl-[1,2,4]triazolo[1,5-a]pyrazin-6-yl)-5-(3-fluoro-4-hydroxyphenyl)-5-methyl-5,7-dihydro-6H-pyrrolo[2,3-d]pyrimidin-6-one]
	207	0.402	111	CC1(c2cccc(O)c2)C(=O)Nc2nc(-c3cn4ccnc4c(CC4CCCCC4)n3)nc(N)c21 (stereo not drawn) [Example 82-B, 4-Amino-2-(8-(cyclohexylmethyl)imidazo[1,2-a]pyrazin-6-yl)-5-(3-hydroxyphenyl)-5-methyl-5,7-dihydro-6H-pyrrolo[2,3-d]pyrimidin-6-one]
	797	2.26	85	CC1(c2ccc(Cl)c(O)c2)C(=O)Nc2nc(-c3cn4ccnc4c(CCC(F)(F)C(F)(F)F)n3)nc(N)c21 (stereo not drawn) [Example 65-A, 4-Amino-5-(4-chloro-3-hydroxyphenyl)-5-methyl-2-(8-(3,3,4,4,4-pentafluorobutyl)imidazo[1,2-a]pyrazin-6-yl)-5,7-dihydro-6H-pyrrolo[2,3-d]pyrimidin-6-one]
	511	1.57	66	CC1(c2ccc(Cl)c(O)c2)C(=O)Nc2nc(-c3cn4ccnc4c(Cc4ccc(F)cc4)n3)nc(N3CCC(F)(F)CC3)c21 (stereo not drawn) [Example 136-A, 5-(4-Chloro-3-hydroxy-phenyl)-4-(4,4-difluoro-piperidin-1-yl)-2-{8-[(4-fluorophenyl)methyl]-imidazo[1,2-a]pyrazin-6-yl}-5-methyl-5,7-dihydro-6H-pyrrolo[2,3-d]-pyrimidin-6-one]
	166	2.22	122	CC1(c2ccc(F)c(O)c2)C(=O)Nc2nc(-c3cn4ccnc4c(CCC4CCCCC4)n3)nc(N)c21 (stereo not drawn) [Example 86-B, 4-Amino-2-(8-(2-cyclohexylethyl)imidazo[1,2-a]pyrazin-6-yl)-5-(4-fluoro-3-hydroxyphenyl)-5-methyl-5,7-dihydro-6H-pyrrolo[2,3-d]pyrimidin-6-one]
	2150	2.57	141	CC1(c2ccc(O)c(Cl)c2)C(=O)Nc2nc(-c3cn4ncnc4c(Cc4ccc(F)cc4)n3)nc(N)c21 (stereo not drawn) [Example 66-B, 4-Amino-5-(3-chloro-4-hydroxyphenyl)-2-{8-[(4-fluorophenyl)methyl]-[1,2,4]triazolo[1,5-a]pyrazin-6-yl}-5-methyl-5,7-dihydro-6H-pyrrolo[2,3-d]pyrimidin-6-one]
